From patent publication US10787425B2, “Thiazolidinedione derivative and use thereof” (INDUSTRY-ACADEMIC COOPERATION FOUNDATION CHOSUN UNIVERSITY, priority 2016, dated 2020)
pIC50: −log10 of the molar value.

Assays:
[1] = system: A549 cells; test: Measurement of PGE2 concentration in A549 cell medium (ELISA); assay type: cell-based, human; conditions: for Increment %: PGE2 concentration versus PBS control, 5 μM, 12 hours; for PGE2 concentration: inhibitor 5 μM, medium collected after 12 hours, ELISA
Description: A549 cells were subcultured in RPMI 1640 medium (containing+8% fetal bovine serum (FBS) and antibiotic-antimycotic (AA)) for one week, and then, inoculated in a 6-well plate at 2.5×10^5 cells/mL (5×10^5 cells/well) and cultured for 24 hours in a 5% CO2 incubator at a temperature of 37° C. A549 cells are adenocarcinomic human alveolar basal epithelial cells which are derived from lung tissues. When cells were grown to about 80% confluence, a 15-PGDH inhibitor in 1×PBS buffer was injected at a concentration of 5 μM. To compare the results, the same amount of 1×PBS buffer was injected into a negative control, and, the treated cells were cultured in 5% CO2 incubator. After 12 hours, the medium was collected and the collected medium was assayed to measure PGE2 concentration by using an ELISA Kit (Abcam) according to the manufacturer's instructions. The concentration may be expressed as an exact value by plotting the calibration curve by using the absorbance value after diluting the standard in the medium by concentration.

[2] = biological target: 15-PGDH (Homo sapiens (Human), UniProt P15428); test: 15-PGDH inhibitory activity (NADH at 340 nm); assay type: biochemical; conditions: concentration inhibiting 50% of 15-PGDH activity; purified 15-PGDH, 21 μM PGE2, 0.25 mM NAD+
Description: The 15-PGDH cDNA plasmid containing the BamHI of the pGEX-2T expression vector and EcoRI restriction enzyme sites was transfected into E. coli BL-21 LysS by using conventional methods used in the art. Then, the transfected cells were cultured in an LB medium (500 ml) containing 50 μg/ml of ampicillin at a temperature of 37° C. and at a rate of 220 rpm until the OD600 reached 0.6. Then, isopropyl beta-D-thiogalactoxide (1 mM) was added and the cells were further cultured at the temperature of 25° C. for 12 hours. The cells were then centrifuged at the gravity of 4,000 g for 30 minutes at a temperature of 4° C. to collect a cell pellet. The cell pellet was dissolved in 20 ml of cell lysis buffer (containing 1×PBS buffer (pH 7.4): 1 mM EDTA and 0.1 mM DTT) and sonicated at a temperature of 4° C. for 14×10 s. The digested cells were centrifuged at the gravity of 4,000 g for 20 minutes at a temperature of 4° C. The supernatant was then slowly loaded onto a glutathione-sepharose 4B column equilibrated at a temperature of 4° C. with cell lysis buffer [containing 1×PBS buffer (pH 7.4), 1 mM EDTA, and 0.1 mM DTT]. Washing was performed thereon by using a dissolution buffer until the OD280 reached 0.005 or less. Then, 15-PGDH was eluted from the glutathione-sepharose 4B column at room temperature for 5 minutes by using an elution buffer [containing 50 mM Tris-HCl (pH 8.0), 10 mM reduced glutathione, 1 mM EDTA, and 0.1 mM DTT). The concentration of the purified enzyme was measured, and the purification level thereof was confirmed by SDS-PAGE.
That is, the cells were treated with a solution including 50 mM Tris-HCl (pH 7.5), 0.1 mM DTT, 0.25 mM (NAD+), 10 μg of purified 15-PGDH enzyme, 21 μM PGE2. and various concentrations (0.0001 μM to 64 μM) of the derivative compound according to the present disclosure. In this case, the total volume of the solution was 2 ml. Then, the absorbance of the reaction mixture was recorded at the wavelength of 340 nm. To measure the activity of the derivative compounds according to the present disclosure, which is an inhibitor of 15-PGDH, the average value of NADH absorbance at 340 nm at various concentrations was obtained from a standard curve.

Chain of 15-PGDH (P15428 whole entry): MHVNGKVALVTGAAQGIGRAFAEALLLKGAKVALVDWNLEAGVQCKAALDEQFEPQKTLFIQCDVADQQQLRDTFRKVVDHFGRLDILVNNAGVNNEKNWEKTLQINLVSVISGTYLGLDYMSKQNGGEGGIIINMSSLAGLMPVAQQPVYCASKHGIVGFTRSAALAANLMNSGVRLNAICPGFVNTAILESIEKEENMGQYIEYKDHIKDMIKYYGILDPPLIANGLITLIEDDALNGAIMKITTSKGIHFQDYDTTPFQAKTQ

SMILES | Increment % [1] [%] | PGE2 concentration [1] [pg/mL] | pIC50 [2]
O=C(CCCCc1ccccc1)Oc1ccc(/C=C2\SC(=O)NC2=O)cc1Br [Compound 30, (Z)-2-bromo-4-((2,4-dioxothiazolidin-5-ylidene)methyl)phenyl 5-phenylpentanoate] | 42.35 | 280.7203 | 7.63
COc1cc(/C=C2\SC(=O)NC2=O)ccc1OC(=O)C1CCCC1 [Compound 33, (Z)-4-((2,4-dioxothiazolidin-5-ylidene)methyl)-2-methoxyphenyl cyclopentanecarboxylate] | −2.32 | 192.6292 | 6.31
O=C(CCC1CCCC1)Oc1cccc(/C=C2\SC(=O)NC2=O)c1Cl [Compound 80, (Z)-2-chloro-3-((2,4-dioxothiazolidin-5-ylidene)methyl)phenyl 3-cyclopentylpropanoate] | 97.99 | 236.9453 | 7.46
O=C(CCCC1CCCCC1)Oc1ccc(/C=C2\SC(=O)NC2=O)c(Cl)c1 [Compound 99, (Z)-3-chloro-4-((2,4-dioxothiazolidin-5-ylidene)methyl)phenyl 4-cyclohexylbutanoate] | 66.7717 | 186.2131 | –
O=C(CCC1CCCCC1)Oc1ccc(/C=C2\SC(=O)NC2=O)c(Cl)c1 [Compound 98, (Z)-3-chloro-4-((2,4-dioxothiazolidin-5-ylidene)methyl)phenyl 3-cyclohexylpropanoate] | 138.7487 | 266.5808 | –
CCOc1cc(/C=C2\SC(=O)NC2=O)ccc1OC(=O)C1CCCC1 [Compound 48, (Z)-4-((2,4-dioxothiazolidin-5-ylidene)methyl)-2-ethoxyphenyl cyclopentanecarboxylate] | −22.79 | 211.539 | 5.85
O=C(CCCC1CCCCC1)Oc1ccc(/C=C2\SC(=O)NC2=O)cc1Cl [Compound 9, (Z)-2-chloro-4-((2,4-dioxothiazolidin-5-ylidene)methyl)phenyl 4-cyclohexylbutanoate] | 189.34 | 792.1232 | 7.69
O=C1NC(=O)/C(=C/c2ccc(OC(=O)C3CC3)cc2Cl)S1 [Compound 91, (Z)-3-chloro-4-((2,4-dioxothiazolidin-5-ylidene)methyl)phenyl cyclopropanecarboxylate] | −4.5498 | 106.5773 | 5.97
O=C(CCCCc1ccccc1)Oc1cccc(/C=C2\SC(=O)NC2=O)c1Cl [Compound 90, (Z)-2-chloro-3-((2,4-dioxothiazolidin-5-ylidene)methyl)phenyl 5-phenylpentanoate] | 98.11 | 416.8478 | 7.34
O=C1NC(=O)/C(=C/c2ccc(OC(=O)C3CC3)c(Br)c2)S1 [Compound 16, (Z)-2-bromo-4-((2,4-dioxothiazolidin-5-ylidene)methyl)phenyl cyclopropanecarboxylate] | 12.12 | 283.7043 | 6.66
O=C(CCC1CCCCC1)Oc1ccc(/C=C2\SC(=O)NC2=O)cc1Br [Compound 23, (Z)-2-bromo-4-((2,4-dioxothiazolidin-5-ylidene)methyl)phenyl 3-cyclohexylpropanoate] | 311.02 | 1040.03 | –
O=C1NC(=O)/C(=C/c2ccc(OC(=O)C3CCC3)c(Cl)c2)S1 [Compound 2, (Z)-2-chloro-4-((2,4-dioxothiazolidin-5-ylidene)methyl)phenyl cyclobutanecarboxylate] | 9.96 | 301.0364 | 6.11
O=C(CC1CCCCC1)Oc1ccc(/C=C2\SC(=O)NC2=O)cc1Br [Compound 22, (Z)-2-bromo-4-((2,4-dioxothiazolidin-5-ylidene)methyl)phenyl 2-cyclohexylacetate] | 89.77 | 480.187 | 7.69
O=C(CC1CCCC1)Oc1ccc(/C=C2\SC(=O)NC2=O)cc1Br [Compound 19, (Z)-2-bromo-4-((2,4-dioxothiazolidin-5-ylidene)methyl)phenyl 2-cyclopentylacetate] | −8.11 | 232.5151 | 7.70
O=C(CCCC1CCCCC1)Oc1ccc(/C=C2\SC(=O)NC2=O)cc1Br [Compound 24, (Z)-2-bromo-4-((2,4-dioxothiazolidin-5-ylidene)methyl)phenyl 4-cyclohexylbutanoate] | 299.32 | 1010.425 | 7.81
O=C(CCCCc1ccccc1)Oc1ccc(/C=C2\SC(=O)NC2=O)cc1Cl [Compound 15, (Z)-2-chloro-4-((2,4-dioxothiazolidin-5-ylidene)methyl)phenyl 5-phenylpentanoate] | 84.11 | 220.3344 | 7.36
CCOc1cc(/C=C2\SC(=O)NC2=O)ccc1OC(=O)CCC1CCCCC1 [Compound 53, (Z)-4-((2,4-dioxothiazolidin-5-ylidene)methyl)-2-ethoxyphenyl 3-cyclohexylpropanoate] | 189.34 | 792.73 | –
O=C1NC(=O)/C(=C/c2ccc(OC(=O)C3CCC3)cc2)S1 [Compound 62, (Z)-4-((2,4-dioxothiazolidin-5-ylidene)methyl)phenyl cyclobutanecartboxylate] | 12.13 | 178.4361 | –
O=C1NC(=O)/C(=C/c2cccc(OC(=O)C3CCCCC3)c2Cl)S1 [Compound 81, (Z)-2-chloro-3-((2,4-dioxothiazolidin-5-ylidene)methyl)phenyl cyclohexanecarboxylate] | 10.32 | 232.1268 | –
O=C(CCC1CCCC1)Oc1ccc(/C=C2\SC(=O)NC2=O)c(Cl)c1 [Compound 95, (Z)-3-chloro-4-((2,4-dioxothiazolidin-5-ylidene)methyl)phenyl 3-cyclopentylpropanoate] | 113.4574 | 238.3412 | –
O=C(CCC1CCCCC1)Oc1ccc(/C=C2\SC(=O)NC2=O)cc1Cl [Compound 8, (Z)-2-chloro-4-((2,4-dioxothiazolidin-5-ylidene)methyl)phenyl 3-cyclohexylpropanoate] | 221.32 | 879.6746 | –
COc1cc(/C=C2\SC(=O)NC2=O)ccc1OC(=O)CCC1CCCCC1 [Compound 38, (Z)-4-((2,4-dioxothiazolidin-5-ylidene)methyl)-2-methoxyphenyl 3-cyclohexylpropanoate] | 323.99 | 859.6813 | –
O=C1NC(=O)/C(=C/c2ccc(OC(=O)c3ccccc3)cc2)S1 [Compound 71, (Z)-4-((2,4-dioxothiazolidin-5-ylidene)methyl)phenyl benzoate] | −58.38 | 53.76 | –
O=C(CCC1CCCCC1)Oc1ccc(/C=C2\SC(=O)NC2=O)cc1 [Compound 68, (Z)-4-((2,4-dioxothiazolidin-5-ylidene)methyl)phenyl 3-cyclohexylpropanoate] | 97.45 | 255.0535 | –
O=C(CCC1CCCCC1)Oc1cccc(/C=C2\SC(=O)NC2=O)c1Cl [Compound 83, (Z)-2-chloro-3-((2,4-dioxothiazolidin-5-ylidene)methyl)phenyl 3-cyclohexylpropanoate] | 201.32 | 634.0143 | –
